Like-named read-outs stand apart in the source and are kept apart here.
Tests used:
Type in all cases: biochemical
[1] = molecular target: T1, TYK2 (aa 871-1187, catalytic domain, GST-tag) (Homo sapiens, UniProt P29597); assay: JAK kinase assay (HTRF, phosphorylation of TK substrate-biotin), TYK2; details: ATP at Km (13 μM)
T1 construct: JAK1 (aa 850-1154) and TYK2 (aa 871-1187) are expressed with an N-terminally fused GST-tag; GST (N); purchased Carna Biosciences, Inc; host or cells: baculovirus expression system
T1 sequence (P29597 871-1187): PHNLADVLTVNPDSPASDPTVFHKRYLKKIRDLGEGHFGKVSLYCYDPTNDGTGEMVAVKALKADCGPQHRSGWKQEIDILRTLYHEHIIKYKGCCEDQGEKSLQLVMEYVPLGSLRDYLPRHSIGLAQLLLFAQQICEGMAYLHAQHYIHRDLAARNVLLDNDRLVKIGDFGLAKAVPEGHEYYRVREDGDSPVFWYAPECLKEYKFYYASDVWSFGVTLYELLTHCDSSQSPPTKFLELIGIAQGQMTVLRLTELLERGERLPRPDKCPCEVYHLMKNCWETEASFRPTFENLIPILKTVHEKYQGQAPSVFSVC
In short: (§1)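 Per reaction, 5 ng JAK1, 0.1 ng JAK2, 0.3 ng JAK3 or 0.8 ng TYK2 (baculovirus-expressed catalytic domains) acted on 1 μM TK substrate-biotin at Km ATP for 20-30 min, RT. Phosphorylation measured by HTRF.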

[2] = molecular target: T2, JAK2 (catalytic domain, His-tag) (Homo sapiens, UniProt O60674); assay: JAK kinase assay (HTRF, phosphorylation of TK substrate-biotin), JAK2; details: ATP at Km (4 μM)
T2 construct: All four purified enzymes contain only the catalytic domain; His (N); purchased Carna Biosciences, Inc; host or cells: baculovirus expression system
In short: as §1

[3] = molecular target: T3, JAK1 (aa 850-1154, catalytic domain, GST-tag) (Homo sapiens, UniProt P23458); assay: JAK kinase assay (HTRF, phosphorylation of TK substrate-biotin), JAK1; details: ATP at Km (7 μM)
T3 construct: JAK1 (aa 850-1154) and TYK2 (aa 871-1187) are expressed with an N-terminally fused GST-tag; GST (N); purchased Carna Biosciences, Inc; host or cells: baculovirus expression system
In short: as §1

[4] = molecular target: T4, JAK3 (catalytic domain, His-tag) (Homo sapiens, UniProt P52333); assay: JAK kinase assay (HTRF, phosphorylation of TK substrate-biotin), JAK3; details: ATP at Km (2 μM)
T4 construct: All four purified enzymes contain only the catalytic domain; His (N); purchased Carna Biosciences, Inc; host or cells: baculovirus expression system
In short: as §1

[5] = read-out: TYK2 kinase inhibitory activity (EC50 indicator)
[6] = read-out: JAK2 kinase inhibitory activity (EC50 indicator)
[7] = read-out: JAK1 kinase inhibitory activity (EC50 indicator)
[8] = read-out: JAK3 kinase inhibitory activity (EC50 indicator)
[9] = HTRF assay, read-out: TYK2 kinase inhibitory activity (EC50 indicator)
[10] = HTRF assay, read-out: JAK2 kinase inhibitory activity (EC50 indicator)
[11] = HTRF assay, read-out: JAK1 kinase inhibitory activity (EC50 indicator)
[12] = HTRF assay, read-out: JAK3 kinase inhibitory activity (EC50 indicator)

T4 sequence (P52333 822-1111 limits assumed): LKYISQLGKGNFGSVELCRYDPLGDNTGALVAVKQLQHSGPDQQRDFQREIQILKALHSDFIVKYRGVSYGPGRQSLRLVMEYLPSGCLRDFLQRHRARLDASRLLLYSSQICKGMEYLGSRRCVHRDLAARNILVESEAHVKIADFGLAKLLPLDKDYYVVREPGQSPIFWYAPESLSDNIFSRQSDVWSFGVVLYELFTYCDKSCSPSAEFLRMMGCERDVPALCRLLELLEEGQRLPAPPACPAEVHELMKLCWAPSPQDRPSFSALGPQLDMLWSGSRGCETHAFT
T2 sequence (O60674 849-1124 limits assumed): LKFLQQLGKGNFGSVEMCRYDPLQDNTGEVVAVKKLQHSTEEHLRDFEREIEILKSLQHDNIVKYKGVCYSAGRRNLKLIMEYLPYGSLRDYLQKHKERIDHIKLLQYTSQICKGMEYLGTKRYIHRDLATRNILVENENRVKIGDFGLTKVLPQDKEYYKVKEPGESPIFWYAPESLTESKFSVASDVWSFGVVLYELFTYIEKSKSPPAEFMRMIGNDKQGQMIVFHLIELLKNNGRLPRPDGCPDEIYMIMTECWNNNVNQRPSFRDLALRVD
T3 sequence (P23458 850-1154): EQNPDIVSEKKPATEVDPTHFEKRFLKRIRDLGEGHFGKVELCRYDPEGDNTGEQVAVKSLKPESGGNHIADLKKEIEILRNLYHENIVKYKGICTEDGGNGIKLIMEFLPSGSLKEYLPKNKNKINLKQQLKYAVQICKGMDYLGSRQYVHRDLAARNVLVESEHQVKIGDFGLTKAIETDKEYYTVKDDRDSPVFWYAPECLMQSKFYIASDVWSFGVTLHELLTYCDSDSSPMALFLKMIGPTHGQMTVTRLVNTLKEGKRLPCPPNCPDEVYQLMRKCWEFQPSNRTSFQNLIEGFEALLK

Compound	EC50 [1, 5]	EC50 [2, 6]	EC50 [3, 7]	EC50 [4, 8]	EC50 [1, 9]	EC50 [2, 10]	EC50 [3, 11]	EC50 [4, 12]	also measured
N#CCCN1CCC(C(=O)N2CCN(c3ncnc4[nH]ccc34)CC23CC3)CC1 [Example 97, 3-{4-[7-(7H-Pyrrolo[2,3-d]pyrimidin-4-yl)-4,7-diaza-spiro[2.5]octane-4-carbonyl]-piperidin-1-yl}-propionitrile]	> 500 nM	100 to 500 nM	< 100 nM	100 to 500 nM					
COC(=O)c1cc2c(N3CCN(C(=O)Cc4cccc(C#N)c4)C4(CC4)C3)ncnc2[nH]1 [Example 123, 4-{4-[2-(3-Cyano-phenyl)-acetyl]-4,7-diaza-spiro[2.5]oct-7-yl}-7H-pyrrolo[2,3-d]pyrimidine-6-carboxylic acid methyl ester]	> 500 nM	> 500 nM	> 500 nM	> 500 nM					
O=C(CC(F)(F)F)N1CCN(c2ncnc3[nH]ccc23)CC12CC2 [Example 24, 3,3,3-Trifluoro-1-[7-(7H-pyrrolo[2,3-d]pyrimidin-4-yl)-4,7-diazaspiro[2.5]oct-4-yl]propan-1-one]	> 500 nM	< 100 nM	< 100 nM	< 100 nM					
Cn1c(C(=O)N2CCN(c3ncnc4[nH]ccc34)CC23CC3)ccc1S(N)(=O)=O [Example 187, 1-Methyl-5-[7-(7H-pyrrolo[2,3-d]pyrimidin-4-yl)-4,7-diaza-spiro[2.5]octane-4-carbonyl]-1H-pyrrole-2-sulfonic acid amide]	< 100 nM	< 100 nM	< 100 nM	< 100 nM					
N#CC1CCN(C(=O)C2(C(=O)N3CCN(c4ncnc5[nH]ccc45)CC34CC4)CC2)C1 (centres unmarked) [Example 88, 1-{1-[7-(7H-Pyrrolo[2,3-d]pyrimidin-4-yl)-4,7-diaza-spiro[2.5]octane-4-carbonyl]-cyclopropanecarbonyl}-pyrrolidine-3-carbonitrile]	> 500 nM	100 to 500 nM	> 500 nM	> 500 nM					
COCCOCC(=O)Nc1nc(N2CCN(C(=O)Cc3ccc(C#N)cc3)C3(CC3)C2)c2cc[nH]c2n1 [Example 96, N-(4-{4-[2-(4-Cyano-phenyl)-acetyl]-4,7-diaza-spiro[2.5]oct-7-yl}-7H-pyrrolo[2,3-d]pyrimidin-2-yl)-2-(2-methoxy-ethoxy)-acetamide]	> 500 nM	< 100 nM	< 100 nM	100 to 500 nM					
NS(=O)(=O)CCC(=O)N1CCN(c2ncnc3[nH]ccc23)CC12CC2 [Example 17, 3-Oxo-3-[7-(7H-pyrrolo[2,3-d]pyrimidin-4-yl)-4,7-diazaspiro[2.5]oct-4-yl]propane-1-sulfonic acid amide]	100 to 500 nM	< 100 nM	< 100 nM	< 100 nM					
CN(C)CCC(=O)N1CCN(c2ncnc3[nH]ccc23)CC12CC2 [Example 457, 3-Dimethylamino-1-[7-(7H-pyrrolo[2,3-d]pyrimidin-4-yl)-4,7-diaza-spiro[2.5]oct-4-yl]-propan-1-one]									EC50 ([1]; HTRF assay, read-out: TYK2 kinase inhibitory activity (EC50)): > 500 nM; EC50 ([2]; HTRF assay, read-out: JAK2 kinase inhibitory activity (EC50)): > 500 nM; EC50 ([3]; HTRF assay, read-out: JAK1 kinase inhibitory activity (EC50)): > 500 nM; EC50 ([4]; HTRF assay, read-out: JAK3 kinase inhibitory activity (EC50)): > 500 nM
O=C(c1c[nH]c2ccccc12)N1CCN(c2ncnc3[nH]ccc23)CC12CC2 [Example 16, (1H-Indol-3-yl)-[7-(7H-pyrrolo[2,3-d]pyrimidin-4-yl)-4,7-diazaspiro[2.5]oct-4-yl]methanone]	100 to 500 nM	< 100 nM	< 100 nM	< 100 nM					
N#Cc1ccc(CC(=O)N2[C@@H]3CC[C@@H]2CN(c2ncnc4[nH]ccc24)C3)cc1 [Example 180, 4-{2-Oxo-2-[3-(7H-pyrrolo[2,3-d]pyrimidin-4-yl)-3,8-diaza-bicyclo[3.2.1]oct-8-yl]-ethyl}-benzonitrile]	> 500 nM	100 to 500 nM	100 to 500 nM	100 to 500 nM					
O=C(c1ccncc1)N1CCN(c2ncnc3[nH]ccc23)CC12CC2 [Example 3, Pyridin-4-yl-[7-(7H-pyrrolo[2,3-d]pyrimidin-4-yl)-4,7-diazaspiro[2.5]oct-4-yl]-methanone]	100 to 500 nM	< 100 nM	< 100 nM	100 to 500 nM					
NS(=O)(=O)c1cc(OCC(=O)N2C3CCC2CN(c2ncnc4[nH]ccc24)C3)ccc1Cl [Example 127, 2-Chloro-5-{2-oxo-2-[3-(7H-pyrrolo[2,3-d]pyrimidin-4-yl)-3,8-diaza-bicyclo[3.2.1]oct-8-yl]-ethoxy}-benzenesulfonamide]	> 500 nM	< 100 nM	< 100 nM	< 100 nM					

Further lines, with some results ahead:

EC50 [1, 5]	EC50 [2, 6]	EC50 [3, 7]	EC50 [4, 8]	EC50 [1, 9]	EC50 [2, 10]	EC50 [3, 11]	EC50 [4, 12]	Compound	also measured
100 to 500 nM	< 100 nM	< 100 nM	100 to 500 nM					CN(C)S(=O)(=O)c1ccc(C(=O)N2CCN(c3ncnc4[nH]ccc34)CC23CC3)cc1 [Example 189, N,N-Dimethyl-4-[7-(7H-pyrrolo[2,3-d]pyrimidin-4-yl)-4,7-diaza-spiro[2.5]octane-4-carbonyl]-benzenesulfonamide]	
				100 to 500 nM	< 100 nM	< 100 nM	< 100 nM	N#Cc1ccc(C(=O)N2[C@@H]3CC[C@@H]2CN(c2ncnc4[nH]ccc24)C3)cc1F [Example 350, 2-Fluoro-4-[3-(7H-pyrrolo[2,3-d]pyrimidin-4-yl)-3,8-diaza-bicyclo[3.2.1]octane-8-carbonyl]-benzonitrile]	
				> 500 nM	100 to 500 nM	< 100 nM	100 to 500 nM	O=C(c1ccc(OC(F)(F)F)cc1)N1[C@@H]2CC[C@@H]1CN(c1ncnc3[nH]ccc13)C2 [Example 251, [3-(7H-Pyrrolo[2,3-d]pyrimidin-4-yl)-3,8-diaza-bicyclo[3.2.1]oct-8-yl]-(4-trifluoromethoxy-phenyl)-methanone]	
				> 500 nM	> 500 nM	> 500 nM	> 500 nM	Cc1ccc(C(=O)N2C[C@@H]3C[C@H]2CN3c2ncnc3[nH]ccc23)s1 [Example 265, (5-Methyl-thiophen-2-yl)-[5-(7H-pyrrolo[2,3-d]pyrimidin-4-yl)-2,5-diaza-bicyclo[2.2.1]hept-2-yl]-methanone]	
				> 500 nM	> 500 nM	> 500 nM	> 500 nM	Cc1c[nH]c2ncnc(N3CCN(C(=O)C4(C#N)CC4)C4(CC4)C3)c12 [Example 329, 1-[7-(5-Methyl-7H-pyrrolo[2,3-d]pyrimidin-4-yl)-4,7-diaza-spiro[2.5]octane-4-carbonyl]-cyclopropanecarbonitrile]	
				> 500 nM	100 to 500 nM	100 to 500 nM	> 500 nM	Cc1ccc2sc(C(=O)N3CCN(c4ccnc5[nH]ccc45)CC34CC4)cc2c1 [Example 234, (5-Methyl-benzo[b]thiophen-2-yl)-[7-(1H-pyrrolo[2,3-b]pyridin-4-yl)-4,7-diaza-spiro[2.5]oct-4-yl]-methanone]	
				> 500 nM	< 100 nM	< 100 nM	100 to 500 nM	O=C(c1ccccn1)N1[C@@H]2CC[C@@H]1CN(c1ncnc3[nH]ccc13)C2 [Example 241, Pyridin-2-yl-[3-(7H-pyrrolo[2,3-d]pyrimidin-4-yl)-3,8-diaza-bicyclo[3.2.1]oct-8-yl]-methanone]	
				< 100 nM	< 100 nM	< 100 nM	< 100 nM	Cc1cncc(C(=O)N2CCN(c3ncnc4[nH]ccc34)CC23CC3)n1 [Example 418, (6-Methyl-pyrazin-2-yl)-[7-(7H-pyrrolo[2,3-d]pyrimidin-4-yl)-4,7-diaza-spiro[2.5]oct-4-yl]-methanone]	

From patent US9346809B2 (LEO PHARMA A/S, priority 2009, dated 2016)
